Experimental data: patent publication US8138168B1 (Takeda Pharmaceutical Company Limited, priority 2007, dated 2012)

Biological target: T1, Recombinant human renin (Homo sapiens, UniProt P00797)
T1 construct: isolate the active form (residues 67-406); made in house; host or cells: FreeStyle 293-F cells (transient expression of pcDNA3.1(+)/hREN)
T1 sequence (P00797 67-406): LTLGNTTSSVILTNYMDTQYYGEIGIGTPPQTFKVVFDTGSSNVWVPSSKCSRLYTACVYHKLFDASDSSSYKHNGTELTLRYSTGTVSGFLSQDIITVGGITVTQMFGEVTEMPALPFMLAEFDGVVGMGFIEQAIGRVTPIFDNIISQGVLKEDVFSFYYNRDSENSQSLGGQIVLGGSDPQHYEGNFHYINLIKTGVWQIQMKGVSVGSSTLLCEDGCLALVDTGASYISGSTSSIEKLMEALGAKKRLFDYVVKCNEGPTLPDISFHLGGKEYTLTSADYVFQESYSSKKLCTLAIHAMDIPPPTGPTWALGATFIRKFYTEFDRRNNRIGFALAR
Test: In vitro enzymatic activity assay of renin inhibitors (fluorogenic peptide substrate)
Type: biochemical
Details: read-out: IC50 of Exemplified Compounds Against Renin
Description: Test compounds in varying concentrations may be reacted with recombinant human renin in the presence of substrate, e.g., QXL520-γ-Abu-[…](HiLyteFluo488)-Arg-OH (Anaspec, San Jose, Calif.). […] Inhibition constants (IC50) may be calculated by non-linear curve fitting of the compound concentrations and fluorescence intensities to the standard IC50 equation.
Solutions of test compounds in varying concentrations mM final concentration) are prepared in dimethyl sulfoxide (DMSO) and then diluted into assay buffer comprising 50 mM Hepes, 1 mM EDTA, 1 mM DTT, 0.1 mg/mL BSA, 0.01% Brij35, pH 7.4. Alternatively, the assay can be performed with a high BSA concentration, wherein the buffer contains an additional 2% BSA.
Recombinant human renin (3 nM final concentration) is added to the dilutions and pre-incubated with the compounds for 10 minutes at 37° C. […] After pre-incubation, the reaction is initiated with of substrate QXL520-γ-Abu-[…](HiLyteFluo488)-Arg-OH (Anaspec, San Jose, Calif.). The final DMSO in the assay is 5%. The total volume of the reaction mixture is 20 μL, which can be placed on Greiner 384-well small volume plates.
The fluorescence intensity is determined upon the addition of substrate and determined again after incubation at 37° C. for one hour. The fluorescence intensity of a blank (no inhibition) using vehicle alone is also determined. Renin activity is linearly proportional to the change in fluorescence observed (final-initial).

Structure (SMILES) | IC50 [nM]
COCCCn1c([C@@H]2CCCN(C(=O)[C@@H]3CN(C(=O)c4cc5ccccc5o4)C[C@H]3N)C2)nc2ccccc21 [Compound 406, ((3R,4S)-4-amino-1-(benzofuran-2-carbonyl)pyrrolidin-3-yl)((R)-3-(1-(3-methoxypropyl)-1H-benzo[d]imidazol-2-yl)piperidin-1-yl)methanone] | > 1000
COCCCn1c([C@@H]2CCCN(C(=O)[C@@H]3CN(S(=O)(=O)c4c(Cl)cccc4Cl)C[C@H]3N)C2)nc2ccccc21 [Compound 347, ((3R,4S)-4-amino-1-(2,6-dichlorophenylsulfonyl)pyrrolidin-3-yl)((R)-3-(1-(3-methoxypropyl)-1H-benzo[d]imidazol-2-yl)piperidin-1-yl)methanone] | 100 to 1000
CC(=O)NCCn1c([C@@H]2CCCN(C(=O)C[C@H](N)Cc3ccc(-c4ccc5c(c4)OCCO5)cc3)C2)nc2ccccc21 [Compound 449, N-(2-(2-((R)-1-((R)-3-amino-4-(4-(2,3-dihydrobenzo[b][1,4]dioxin-6-yl)phenyl)butanoyl)piperidin-3-yl)-1H-benzo[d]imidazol-1-yl)ethyl)acetamide] | 100 to 1000
COCCCn1c([C@@H]2CCCN(C(=O)C[C@H](N)c3cccnc3)C2)nc2ccccc21 [Compound 119, (S)-3-amino-1((R)-3-(1-(3-methoxypropyl)-1H-benzo[d]imidazol-2-yl)piperidin-1-yl)-3-(pyridin-3-yl)propan-1-one] | 100 to 1000
COCCCn1c([C@@H]2CCCN(C(=O)[C@@H]3CN(S(=O)(=O)c4cccc(NC(C)=O)c4)C[C@H]3N)C2)nc2ccccc21 [Compound 429, N-(3-((3S,4R)-3-amino-4-((R)-3-(1-(3-methoxypropyl)-1H-benzo[d]imidazol-2-yl)piperidine-1-carbonyl)pyrrolidin-1-ylsulfonyl)phenyl)acetamide] | < 100
O=C(Nc1ccccc1)N1CCCC(c2nc3ccccc3[nH]2)C1 (stereo not drawn) [Compound 8, 3-(1H-benzo[d]imidazol-2-yl)-N-phenylpiperidine-1-carboxamide] | > 1000
COCCCn1c([C@@H]2CCCN(C(=O)[C@@H]3CN(C(=O)Nc4cccc(Cl)c4)C[C@H]3N)C2)nc2ccccc21 [Compound 378, (3S,4R)3-amino-N-(3-chlorophenyl)-4-((R)-3-(1-(3-methoxypropyl)-1H-benzo[d]imidazol-2-yl)piperidine-1-carbonyl)pyrrolidine-1-carboxamide] | 100 to 1000
COCCCn1c([C@@H]2CCCN(C(=O)[C@@H]3CN(S(=O)(=O)c4ccc(C(C)(C)C)cc4)C[C@H]3N)C2)nc2ccccc21 [Compound 374, ((3R,4S)-4-amino-1-(4-tert-butylphenylsulfonyl)pyrrolidin-3-yl)((R)-3-(1-(3-methoxypropyl)-1H-benzo[d]imidazol-2-yl)piperidin-1-yl)methanone] | 100 to 1000
COCCCn1c([C@@H]2CCCN(C(=O)C[C@H](N)CNC(=O)Nc3cc(OC)ccc3OC)C2)nc2ccccc21 [Compound 273, 1-((S)-2-amino-4-((R)-3-(1-(3-methoxypropyl)-1H-benzo[d]imidazol-2-yl)piperidin-1-yl)-4-oxobutyl)-3-(2,5-dimethoxyphenyl)urea] | 100 to 1000
COCCCn1c([C@@H]2CCCN(C(=O)CC(CN)c3ccc(Cl)cc3)C2)nc2ccccc21 (stereo partly drawn) [Compound 93, 4-amino-3-(4-chlorophenyl)-1-((R)-3-(1-(3-methoxypropyl)-1H-benzo[d]imidazol-2-yl)piperidin-1-yl)butan-1-one] | > 1000
COCCCn1c([C@@H]2CCCN(C(=O)[C@@H]3CN(C(=O)c4cccnc4Oc4ccccc4)C[C@H]3N)C2)nc2ccccc21 [Compound 366, ((3R,4S)-4-amino-1-(2-phenoxynicotinoyl)pyrrolidin-3-yl)((R)-3-(1-(3-methoxypropyl)-1H-benzo[d]imidazol-2-yl)piperidin-1-yl)methanone] | 100 to 1000

Now from value to molecule:

IC50 [nM] | Structure (SMILES)
< 100 | COCCCn1c([C@@H]2CCCN(C(=O)C[C@H](N)Cc3cccc(-c4ccccc4)c3)C2)nc2ccccc21 [Compound 122, (R)-3-amino-4-(biphenyl-3-yl)-1-((R)-3-(1-(3-methoxypropyl)-1H-benzo[d]imidazol-2-yl)piperidin-1-yl)butan-1-one]
< 100 | CCCn1c(=O)n(-c2ccc(C[C@@H](N)CC(=O)N3CCC[C@@H](c4nc5ccccc5n4CCCOC)C3)cc2)c2ccccc21 [Compound 221, 1-(4-((R)-2-amino-4-((R)-3-(1-(3-methoxypropyl)-1H-benzo[d]imidazol-2-yl)piperidin-1-yl)-4-oxobutyl)phenyl)-3-propyl-1H-benzo[d]imidazol-2(3H)-one]
100 to 1000 | COCCCn1c([C@@H]2CCCN(C(=O)C[C@H](N)CNC(=O)Nc3ccccc3-c3ccccc3)C2)nc2ccccc21 [Compound 291, 1-((S)-2-amino-4-((R)-3-(1-(3-methoxypropyl)-1H-benzo[d]imidazol-2-yl)piperidin-1-yl)-4-oxobutyl)-3-(biphenyl-2-yl)urea]
100 to 1000 | COCCCn1c([C@@H]2CCCN(C(=O)C[C@H](N)Cc3ccc(N4CCN(c5ccccc5)C(=O)C4)cc3)C2)nc2ccccc21 [Compound 233, 4-(4-((R)-2-amino-4-((R)-3-(1-(3-methoxypropyl)-1H-benzo[d]imidazol-2-yl)piperidin-1-yl)-4-oxobutyl)phenyl)-1-phenylpiperazin-2-one]
< 100 | COCCCn1c([C@@H]2CCCN(C(=O)C[C@H](N)Cc3ccc(-c4ccc(NC(N)=O)cc4)cc3)C2)nc2ccccc21 [Compound 172, 1-(4′-((R)-2-amino-4-((R)-3-(1-(3-methoxypropyl)-1H-benzo[d]imidazol-2-yl)piperidin-1-yl)-4-oxobutyl)biphenyl-4-yl)urea]
< 100 | COCCCn1c([C@@H]2CCCN(C(=O)C[C@H](N)Cc3ccc(-c4cncnc4)cc3)C2)nc2ccccc21 [Compound 149, (R)-3-Amino-1-((R)-3-(1-(3-methoxypropyl)-1H-benzo[d]imidazol-2-yl)piperidin-1-yl)-4-(4-(pyrimidin-5-yl)phenyl)butan-1-one]
< 100 | COCCCn1c([C@@H]2CCCN(C(=O)C[C@H](N)Cc3ccc(-n4c(=O)n(C)c5ccccc54)cc3)C2)nc2ccccc21 [Compound 220, 1-(4-((R)-2-amino-4-((R)-3-(1-(3-methoxypropyl)-1H-benzo[d]imidazol-2-yl)piperidin-1-yl)-4-oxobutyl)phenyl)-3-methyl-1H-benzo[d]imidazol-2(3H)-one]
> 1000 | COCCCn1c(C2CCCN(C(=O)C[C@@H](N)c3ccccc3)C2)nc2ccccc21 (stereo partly drawn) [Compound 65, (3R)-3-amino-1-(3-(1-(3-methoxypropyl)-1H-benzo[d]imidazol-2-yl)piperidin-1-yl)-3-phenylpropan-1-one]
100 to 1000 | COCCCn1c([C@@H]2CCCN(C(=O)C[C@H](N)CNS(=O)(=O)c3ccc(Cl)cc3)C2)nc2ccccc21 [Compound 281, N-((S)-2-amino-4-((R)-3-(1-(3-methoxypropyl)-1H-benzo[d]imidazol-2-yl)piperidin-1-yl)-4-oxobutyl)-4-chlorobenzenesulfonamide]
100 to 1000 | COc1ccc(-c2ccc(C[C@@H](N)CC(=O)N3CCC[C@@H](c4nc5ccccc5n4CCC(N)=O)C3)cc2)cc1 [Compound 487, 3-(2-((R)-1-((R)-3-amino-4-(4′-methoxybiphenyl-4-yl)butanoyl)piperidin-3-yl)-1H-benzo[d]imidazol-1-yl)propanamide]
< 100 | COCCCn1c([C@@H]2CCCN(C(=O)C[C@H](N)Cc3ccc(-c4ccc5c(c4)OCCN5C)cc3)C2)nc2ccccc21 [Compound 439, (R)-3-amino-1-((R)-3-(1-(3-methoxypropyl)-1H-benzo[d]imidazol-2-yl)piperidin-1-yl)-4-(4-(4-methyl-3,4-dihydro-2H-benzo[b][1,4]oxazin-7-yl)phenyl)butan-1-one]
> 1000 | COCCCn1c(C2CC(C)CN(C(=O)C[C@H](N)Cc3ccc4ccccc4c3)C2)nc2ccccc21 (stereo partly drawn) [Compound 246, (3R)-3-amino-1-(3-(1-(3-methoxypropyl)-1H-benzo[d]imidazol-2-yl)-5-methylpiperidin-1-yl)-4-(naphthalen-2-yl)butan-1-one]
< 100 | COCCCn1c([C@@H]2CCCN(C(=O)C[C@H](N)Cc3ccc(-c4ccc(C(=O)NCCO)c(F)c4)cc3)C2)nc2ccccc21 [Compound 190, 4′-((R)-2-amino-4-((R)-3-(1-(3-methoxypropyl)-1H-benzo[d]imidazol-2-yl)piperidin-1-yl)-4-oxobutyl)-3-fluoro-N-(2-hydroxyethyl)biphenyl-4-carboxamide]
